Measured values from patent US10610564B2, “IRGM and precision autophagy controls for antimicrobial and inflammatory disease states and methods of detection of autophagy” (STC.UNM, priority 2015, dated 2020).

What follows are molecules tested on THP-1 cells (assay: High content analysis of LC3 puncta in THP-1 cells (TRIM family screen conditions)). Details: IFN-γ 4 h.
Format: cell-based, human
Procedure: (A) THP-1 cells were subjected to TRIM knockdown, treated with 1,000 U/mL IFN-γ for 4 h, and high content (HC) analysis was performed using a Cellomics HCS scanner (epifluorescence) and iDEV software. HC (magenta, endogenous LC3B immunofluorescence [IF]; blue, nuclei stained with Hoechst). Mask overlay, software-defined objects (primary objects, cell outlines; internal secondary objects, LC3 puncta). (B) Average count of LC3 puncta per cell from cells treated as in (A) (Data from two 96-well plates with identical siRNA arrangements; the corresponding data are shown in Supplementary FIG. 1C). Encircled are INF-γ-treated wells (right) and wells with vehicle controls (bottom left). TRIM knockdowns that reduced LC3 puncta readout in both two experiments by 3 SDs (horizontal dot lines) from the average of IFN-γ-treated controls (horizontal solid line) are indicated by corresponding TRIM numbers (open circle). TRIMs that were chosen in follow-up experiments in FIG. 1C are also indicated with number. (C) Similar to (B), except that THP-1 cells were subjected to specific TRIM or scrambled (Scr; control) knockdown, and were analyzed in more than quadruplicate manner. […] (E) THP-1 cells were treated with TRIM20 or Scr siRNAs, treated with or without IFN-γ for 4 h in the presence of bafilomycin A1, and LC3-II conversion was determined by immunoblots. […]

Molecule	autophagy induction (LC3 puncta per cell)
IFN-γ: interferon-gamma (PeproTech), precision autophagy modulator (protein, UniProt P01579 24-161, looked up) Interferon gamma: QDPYVKEAENLKKYFNAGHSDVADNGTLFLGILKNWKEESDRKIMQSQIVSFYFKLFKNFKDDQSIQKSVETIKEDMNVKFFNSNKKKRDDFEKLTNYSVTDLNVQRKAIHELIQVMAELSPAAKTGKRKRSQMLFRG	induced autophagy

Each molecule was assayed on primary human macrophages (assay: High content analysis of LC3 puncta in primary human macrophages). Details: IFN-γ 4 h.
Format: cell-based
Procedure: (§1) (A and B) High content image analysis of LC3 puncta in (A) THP-1 cells or (B) human MDM cells treated with IFN-γ for 4 h. HC and mask overlays are as in FIG. 1. (C) Screen data from FIG. 1B showing average±range. (D) Knockdown efficacy of TRIMs were determined by RT-PCR. (E and F) THP-1 cells were treated with (E) escalating doses of IFN-γ for 4 h or (F) 1,000 U/ml of IFN-γ for indicated times, and TRIM20 mRNA levels were determined by quantitative RT-PCR. Values are standardized to (E) no IFN-γ control or (F) 0 h time point. (G) THP-1 cells were subjected to TRIM20 or scrambled siRNA, treated with IFN-γ for 4 h, and HC analysis performed. (H) Knockdown of TRIM20 mRNA levels was examined by quantitative RT-PCR. Values are standardized to control (Scr, scrambled; no IFN-γ). (I) LC3-II conversion in HEK293 cells transfected with GFP-TRIM20 (T20) or GFP. Data, means±SE, n≥3 experiments, except panel (C). Scale bars, 5 μm. *P<0.05, ^†P≥0.05 (t test in (B) or ANOVA (other panels)).
High content imaging and analysis was performed using a Cellomics V^TI HCS scanner and iDEV software (ThermoScientific). […] Epifluorescnece images were machine analyzed using present scanning parameters and object mask definitions. Hoechst 33342 staining were used to automatically detect cellular outlines based on background staining of the cytoplasm, and the mean count of LC3 puncta per cell was determined.

Molecule	autophagy induction (LC3 puncta per cell)
IFN-γ: interferon-gamma (PeproTech), precision autophagy modulator (protein, UniProt P01579 24-161, looked up) Interferon gamma: QDPYVKEAENLKKYFNAGHSDVADNGTLFLGILKNWKEESDRKIMQSQIVSFYFKLFKNFKDDQSIQKSVETIKEDMNVKFFNSNKKKRDDFEKLTNYSVTDLNVQRKAIHELIQVMAELSPAAKTGKRKRSQMLFRG	induced autophagy

The molecules below were run on TRIM20 (assay: TRIM20 mRNA levels by quantitative RT-PCR in THP-1 cells). Details: escalating doses for 4 h or 1,000 U/ml for indicated times.
Format: cell-based, human
Procedure: as §1, with “Data, means±SE, n≥3 experiments, except panel (C). Scale bars, 5 μm. *P<0.05, ^†P≥0.05 (t test in (B) or ANOVA (other panels)).” left out
(§2) Detection of IRF3 dimerization was performed by native polyacrylamide gel electrophoresis (PAGE) as previously described (Takahasi et al., 2003). Quantitative RT-PCR was performed as previously described (Kimura et al., 2013) using the following primer sets: ULK1, ([…], […]); BECN1, ([…], […]); ACTIN, ([…], […]); TRIM1, ([…], […]); TRIM5, ([…], […]); TRIM8, ([…], […]); TRIM16, ([…], […]); TRIM20, ([…], […]); TRIM21, ([…], […]); TRIM22, ([…], […]); TRIM28, ([…], […]); TRIM56, ([…], […]); and TRIM65, ([…], […]). […]

Molecule	TRIM20 expression
IFN-γ: interferon-gamma (PeproTech), precision autophagy modulator (protein, UniProt P01579 24-161, looked up) Interferon gamma: QDPYVKEAENLKKYFNAGHSDVADNGTLFLGILKNWKEESDRKIMQSQIVSFYFKLFKNFKDDQSIQKSVETIKEDMNVKFFNSNKKKRDDFEKLTNYSVTDLNVQRKAIHELIQVMAELSPAAKTGKRKRSQMLFRG	responsive

Each molecule was assayed on TRIM21 (assay: TRIM21 mRNA levels by quantitative RT-PCR in THP-1 cells). Details: 1,000 U/ml IFN-γ for indicated times.
Format: cell-based, human
Procedure: (A) THP-1 cells were treated with 1,000 U/ml of IFN-γ for indicated times, and TRIM21 mRNA levels were determined by quantitative RT-PCR. (B) Co-immunoprecipitation analysis of GFP-TRIM20 with Flag-TRIM21 in HEK293 cells extracts. (C) Knockdown efficacy of TRIM21 level was examined by immunoblotting. (D) Levels of dimerized IRF3 were assessed by native PAGE from THP-1 cells subjected to TRIM21 or control knockdown, untreated with IFN-γ, and transfected with herring testis DNA (HT-DNA). (E and F) THP-1 cells subjected to TRIM21 or control knockdown were infected with a single-round infection HIV1 virus in the presence of 200 U/mL IFN-γ for 20 h, and (E) the levels of dimerized IRF3 or (F) mRNA levels of IFN-β were determined. […]
as §2

Molecule	TRIM21 expression
IFN-γ: interferon-gamma (PeproTech), precision autophagy modulator (protein, UniProt P01579 24-161, looked up) Interferon gamma: QDPYVKEAENLKKYFNAGHSDVADNGTLFLGILKNWKEESDRKIMQSQIVSFYFKLFKNFKDDQSIQKSVETIKEDMNVKFFNSNKKKRDDFEKLTNYSVTDLNVQRKAIHELIQVMAELSPAAKTGKRKRSQMLFRG	transiently induced

The molecules below were run on autophagy (assay: Autophagy assays identifying autophagy modulators). Details: not given.
Format: cell-based

Molecule	activity as autophagy modulator
CC12CC3CC(C)(C1)CC(N)(C3)C2 [memantine]	agonists or inducers of autophagy
CCN(CC)CCOc1ccc(C(=C(Cl)c2ccccc2)c2ccccc2)cc1.O=C(O)CC(O)(CC(=O)O)C(=O)O [clomiphene citrate (Z,E)]	agonists or inducers of autophagy
CCCCc1cc2ccccc2c(OCCN(C)C)n1 [dimethisoquin]	agonists or inducers of autophagy
CC[N+](C)(CC)CCC[n+]1c(-c2ccccc2)c2cc(N)ccc2c2ccc(N)cc21.[I-].[I-] [propidium iodide]	agonists or inducers of autophagy
CNCCC=C1c2ccccc2CCc2ccccc21 [nortriptyline]	agonists or inducers of autophagy
CNCC(O)c1ccc(OC(=O)C(C)(C)C)c(OC(=O)C(C)(C)C)c1 (stereo not shown) [dipivefrin]	agonists or inducers of autophagy
CN(Cc1cc(Br)cc(Br)c1N)C1CCCCC1 [bromhexine]	agonists or inducers of autophagy
O=C(Nc1ccccc1)OCC(CN1CCCCC1)OC(=O)Nc1ccccc1 (stereo not shown) [diperodon]	agonists or inducers of autophagy
N#Cc1c(Cl)c(Cl)c(Cl)c(C#N)c1Cl [tetrachlorisophthalonitrile]	antagonists or inhibitors of autophagy
COC(=O)Nc1nc2cc(C(=O)c3ccc(F)cc3)ccc2[nH]1 [flubendazole]	agonists or inducers of autophagy
CC(C)COCC(CN(Cc1ccccc1)c1ccccc1)N1CCCC1 (stereo not shown) [bepridil]	agonists or inducers of autophagy
COCCCC/C(=N\OCCN)c1ccc(C(F)(F)F)cc1 [fluvoxamine]	agonists or inducers of autophagy
CNCCC=C1c2ccccc2C=Cc2ccccc21 [norcyclobenzaprine]	agonists or inducers of autophagy
CN1CCCC(CC2c3ccccc3Sc3ccccc32)C1 (stereo not shown) [metixene]	agonists or inducers of autophagy
CC(=O)[O-].[Hg+][c]1ccccc1 [phenylmercuric acetate]	antagonists or inhibitors of autophagy
